Experimental data as given in the NIST ThermoML archive (doi:10.1021/acs.jced.5b00367).
± gives the expanded uncertainty stated by the source.

Tests used:
[1] = Crystal; visual observation
[2] = wn = mass fraction of the nth substance listed; conditions: 101 kPa, Liquid, Alternating current cell with electrodes, w1 = 0.01
[3] = mn = molality of the nth substance listed, in mol/kg; conditions: 303.15 K, 100 kPa, Liquid, Alternating current cell with electrodes

CCCCCCCCCCCCCCCC[N+](C)(C)CC[N+](C)(C)CCCCCCCCCCCCCCCC.[Br-].[Br-]
Conditions | Normal melting temperature [°C]
[1] | 175.00 ± 1.1

CCCCCCCCCCCC[N+](C)(C)CC[N+](C)(C)CCCCCCCCCCCC.[Br-].[Br-] [1,2-bis(dimethyldodecylammonium)ethane dibromide] + O
Conditions | electrical conductivity [S/m]
[2], 275.15 K | 0.0196 ± 0.0078
[2], 276.25 K | 0.0196 ± 0.0078
[2], 277.35 K | 0.0196 ± 0.0078
[2], 278.15 K | 0.0196 ± 0.0079
[2], 279.45 K | 0.0197 ± 0.0079
[2], 280.25 K | 0.0197 ± 0.0079
[2], 281.35 K | 0.0197 ± 0.0079
[2], 282.15 K | 0.0197 ± 0.0079
[2], 283.15 K | 0.0198 ± 0.0079
[2], 284.25 K | 0.0198 ± 0.0079
[2], 285.15 K | 0.0198 ± 0.0079
[2], 285.65 K | 0.0198 ± 0.0079
[2], 286.15 K | 0.0199 ± 0.008
[2], 288.15 K | 0.0202 ± 0.0081
[2], 289.15 K | 0.0203 ± 0.0081
[2], 290.15 K | 0.0204 ± 0.0082
[2], 291.15 K | 0.0205 ± 0.0082
[2], 292.15 K | 0.0206 ± 0.0083
[2], 293.15 K | 0.021 ± 0.0084
[2], 295.75 K | 0.0212 ± 0.0085
[2], 298.15 K | 0.0215 ± 0.0086
[2], 299.65 K | 0.0218 ± 0.0087
[2], 301.65 K | 0.022 ± 0.0088
[2], 303.45 K | 0.0222 ± 0.0089
[2], 305.75 K | 0.0225 ± 0.009
[2], 308.15 K | 0.0228 ± 0.0091
[2], 310.25 K | 0.0229 ± 0.0092
[2], 311.15 K | 0.023 ± 0.0092
[2], 313.15 K | 0.0232 ± 0.0093
[2], 315.15 K | 0.0235 ± 0.0094
[2], 317.95 K | 0.0237 ± 0.0095
[2], 318.15 K | 0.024 ± 0.0096
[2], 320.55 K | 0.0242 ± 0.0097
[2], 323.15 K | 0.0244 ± 0.0097
[2], 325.55 K | 0.0245 ± 0.0098
[2], 327.15 K | 0.0248 ± 0.0099
[2], 329.35 K | 0.0249 ± 0.01
[2], 331.55 K | 0.025 ± 0.01
[2], 334.15 K | 0.0252 ± 0.01
[2], 335.55 K | 0.0254 ± 0.01
[2], 337.95 K | 0.0255 ± 0.01
[2], 338.35 K | 0.0258 ± 0.01
[2], 340.45 K | 0.026 ± 0.01
[2], 343.15 K | 0.0263 ± 0.011
[2], 345.15 K | 0.0265 ± 0.011
[2], 347.15 K | 0.0266 ± 0.011
[2], 349.15 K | 0.0267 ± 0.011
[2], 353.05 K | 0.027 ± 0.011
[3], m1 = 0.000201 | 0.00422 ± 0.0017
[3], m1 = 0.000301 | 0.00612 ± 0.0024
[3], m1 = 0.000402 | 0.00816 ± 0.0033
[3], m1 = 0.000503 | 0.00967 ± 0.0039
[3], m1 = 0.000603 | 0.012 ± 0.0048
[3], m1 = 0.000703 | 0.0133 ± 0.0053
[3], m1 = 0.000803 | 0.0162 ± 0.0065
[3], m1 = 0.001206 | 0.0197 ± 0.0079
[3], m1 = 0.001407 | 0.0205 ± 0.0082
[3], m1 = 0.001608 | 0.0212 ± 0.0085
[3], m1 = 0.001809 | 0.022 ± 0.0088
[3], m1 = 0.00201 | 0.0226 ± 0.009
[3], m1 = 0.002211 | 0.0231 ± 0.0092

CCCCCCCCCCCCCCCC[N+](CC)(CC)CCCCCCCCCCCCCCCC.[Br-] [diethyldihexadecylammonium bromide]
Conditions | Normal melting temperature [°C]
[1] | 73.80 ± 1.1

CCCCCCCCCCCC[N+](C)(C)C.[Br-] [dodecyltrimethylammonium bromide]
Conditions | Normal melting temperature [°C]
[1] | 265.00 ± 1.1

CCCCCCCCCC[N+](CC)(CC)CCCCCCCCCC.[Br-] [didecyldiethylammonium bromide]
Conditions | Normal melting temperature [°C]
[1] | 45.00 ± 1.1

CCCCCCCCCCCC[N+](CC)(CC)CCCCCCCCCCCC.[Br-] [didodecyldiethylammonium bromide]
Conditions | Normal melting temperature [°C]
[1] | 52.20 ± 1.1

CCCCCCCCCCCCCCCC[N+](C)(C)C.[Br-] [N,N,N-trimethyl-1-hexadecanaminium bromide]
Conditions | Normal melting temperature [°C]
[1] | 247.00 ± 1.1

CCCCCCCCCCCCCCCC[N+](C)(C)CC[N+](C)(C)CCCCCCCCCCCCCCCC.[Br-].[Br-] + O
[3]
Conditions | electrical conductivity [S/m]
m1 = 5e-06 | 0.00031 ± 0.00013
m1 = 1e-05 | 0.0004 ± 0.00016
m1 = 1.5e-05 | 0.00049 ± 0.0002
m1 = 2e-05 | 0.00058 ± 0.00023
m1 = 2.5e-05 | 0.00065 ± 0.00026
m1 = 3e-05 | 0.00073 ± 0.00029
m1 = 3.5e-05 | 0.0008 ± 0.00032
m1 = 4e-05 | 0.00082 ± 0.00033
m1 = 5e-05 | 0.00086 ± 0.00034
m1 = 6e-05 | 0.00088 ± 0.00035

CCCCCCCCCCCC[N+](C)(C)CC[N+](C)(C)CCCCCCCCCCCC.[Br-].[Br-] [1,2-bis(dimethyldodecylammonium)ethane dibromide]
Conditions | Normal melting temperature [°C]
[1] | 157.00 ± 1.1
